Test results reported in patent publication US10106578B2, “Melanocortin-1 receptor-specific linear peptides” (Palatin Technologies, Inc., priority 2012, dated 2018).
Where a SMILES comes first, the peptide text is derived from it. [ ]: non-standard residue; d: D form. Nle = CCCC[C@H](N)C(=O)O; Orn = NCCC[C@H](N)C(=O)O; Dab = NCC[C@H](N)C(=O)O

What was measured:
hMCR-4 = molecular target: T1, hMCR-4 (Homo sapiens, UniProt P32245); assay: Competitive inhibition binding assay using [I125]-NDP-α-MSH, hMCR-4 membranes; settings: HEK-293 membranes, recombinant human MCR-4, [I125]-NDP-α-MSH; read-out: MC-4 Ki (average)
T1 construct: expressed in transfected cells; host or cells: HEK-293 cells (membrane homogenates)
Description: (§1) A competitive inhibition binding assay was performed using membrane homogenates prepared from HEK-293 cells that express recombinant hMCR-1a or hMCR-4 (in each instance where the h prefix refers to human), or alternatively membrane homogenates from B16-F10 mouse melanoma cells containing endogenous murine MCR-1. In the examples that follow, all MCR-1 and MCR-4 values are for human recombinant receptors, unless otherwise noted. Assays were performed in 96 well polypropylene round-bottom plates (VWR catalog number 12777-030). Membrane homogenates were incubated with 0.1 nM [I^125]-NDP-α-MSH (Perkin Elmer) and increasing concentrations of test peptides of the present invention in buffer containing 25 mM HEPES buffer (pH 7.5) with 100 mM NaCl, 2 mM CaCl2, 2 mM MgCl2, 0.3 mM 1,10-phenanthroline, and 0.2% bovine serum albumin. After incubation for 90 minutes at 37° C., the assay mixture was filtered onto GF/B Unifilter plates (Perkin-Elmer catalog number 6005177) and washed with 3 mL of ice-cold buffer per well. Filters were air dried and 35 μL of scintillation cocktail added to each well. Plates were counted in a Microbeta counter for bound radioactivity. Non-specific binding was measured by inhibition of binding of [I^125]-NDP-α-MSH in the presence of 1 μM NDP-α-MSH. Maximal specific binding (100%) was defined as the difference in radioactivity (cpm) bound to cell membranes in the absence and presence of 1 μM NDP-α-MSH. Each assay was conducted in duplicate and the actual mean values are described, with results less than 0% reported as 0%. Ki values for peptides of the present invention were determined using Graph-Pad PRISM® curve-fitting software.
(§2) Peptides of the following structures were synthesized and purified as described in Section 5 above, with the resulting peptide having the structure depicted. After synthesis and purification, the foregoing peptide was tested as described in Section 8 above, and average MCR-1 and MCR-4 Ki values determined as indicated. All Ki values were determined using [I^125]-NDP-α-MSH. All results are expressed in nM except for Emax values, which are percentage values.

hMCR-1a = molecular target: T2, hMCR-1a (Homo sapiens, UniProt Q01726); assay: Competitive inhibition binding assay using [I125]-NDP-α-MSH, hMCR-1a membranes; settings: HEK-293 membranes, recombinant human MCR-1, [I125]-NDP-α-MSH; read-out: MC-1 Ki (average)
T2 construct: expressed in transfected cells; host or cells: HEK-293 cells (membrane homogenates)
Description: as §1, §2

hMCR-1 = molecular target: T3, hMCR-1 (Homo sapiens, UniProt Q01726); assay: Assay for agonist activity: cAMP accumulation in HBL human melanoma cells; type: cell-based; settings: for Emax: compared to reference agonist NDP-α-MSH, read-out: MC-1 Emax (average; cAMP HBL)
T3 construct: endogenous in cells; host or cells: HBL human melanoma cell line
Description: Accumulation of intracellular cAMP was examined as a measure of the ability of the peptides of the present invention to elicit a functional response in a human melanoma cell line, HBL, that express hMCR-1 (see Kang, L., et al., “A selective small molecule agonist of melanocortin-1 receptor inhibits lipopolysaccharide-induced cytokine accumulation and leukocyte infiltration in mice,” J. Leuk. Biol. 80:897-904 (2006)) or HEK-293 cells that express hMCR-4. Confluent HBL cells that express hMCR-1 or HEK-293 cells that express recombinant hMCR-4 were detached from culture plates by incubation in enzyme-free cell dissociation buffer. Dispersed cells were suspended in Earle's Balanced Salt Solution containing 10 mM HEPES (pH 7.5), 1 mM MgCl2, 1 mM glutamine, 0.5% albumin and 0.3 mM 3-isobutyl-1-methyl-xanthine (IBMX), a phosphodiesterase inhibitor. The cells were plated in 96-well plates at a density of 0.4×10^5 cells per well for HBL cells and 0.5×10^5 cells per well for HEK-293 cells and pre-incubated for 10 minutes. Cells were exposed for 15 minutes at 37° C. to peptides of the present invention dissolved in DMSO (final DMSO concentration of 1%) at a concentration range of 0.05-5000 nM in a total assay volume of 200 μL. NDP-α-MSH was used as the reference agonist. cAMP levels were determined by an HTRF® cAMP cell-based assay system from Cisbio Bioassays utilizing cryptate-labeled anti-cAMP and d2-labeled cAMP, with plates read on a Perkin-Elmer Victor plate reader at […]. Data analysis was performed by nonlinear regression analysis with Graph-Pad PRISM® software. Maximum efficacy (Emax) values were determined for each test peptide of the present invention, compared to that achieved by the reference melanocortin agonist NDP-α-MSH.
as §2

T2 sequence (Q01726 whole entry): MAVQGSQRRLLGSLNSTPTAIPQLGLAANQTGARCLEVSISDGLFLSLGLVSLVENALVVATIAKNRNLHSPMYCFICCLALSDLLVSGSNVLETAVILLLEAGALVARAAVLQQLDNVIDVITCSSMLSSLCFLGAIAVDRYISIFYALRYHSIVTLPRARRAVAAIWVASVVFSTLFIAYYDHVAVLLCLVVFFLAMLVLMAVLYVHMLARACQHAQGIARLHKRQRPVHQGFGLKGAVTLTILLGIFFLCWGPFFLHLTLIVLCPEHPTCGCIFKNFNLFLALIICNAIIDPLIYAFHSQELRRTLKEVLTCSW
T3 sequence (Q01726 whole entry): as above
T1 sequence (P32245 whole entry): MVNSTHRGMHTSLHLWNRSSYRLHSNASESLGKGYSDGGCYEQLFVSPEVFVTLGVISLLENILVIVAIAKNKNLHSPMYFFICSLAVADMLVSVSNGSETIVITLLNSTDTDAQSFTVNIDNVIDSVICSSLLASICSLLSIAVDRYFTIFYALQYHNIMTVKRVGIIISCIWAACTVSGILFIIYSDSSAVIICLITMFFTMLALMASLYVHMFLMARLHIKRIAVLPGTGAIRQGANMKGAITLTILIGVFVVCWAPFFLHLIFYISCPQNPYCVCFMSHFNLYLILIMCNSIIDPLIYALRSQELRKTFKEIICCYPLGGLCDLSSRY

## CCCC[C@H](NC(C)=O)C(=O)N[C@@H](C)C(=O)N[C@@H](Cc1c[nH]cn1)C(=O)N[C@H](Cc1ccccc1)C(=O)N[C@@H](CCCNC(=N)N)C(=O)N1CCC[C@H]1C(=O)N[C@H](Cc1c[nH]c2ccccc12)C(N)=O [Example 9.13, Ac-Nle-Ala-His-D-Phe-Arg-Pro-D-Trp-NH2] (Ac-[Nle]AH[dF]RP[dW]-NH2)
hMCR-4
  Ki: 650 nM
hMCR-1a
  Ki: 2 nM
hMCR-1
  Emax: 90%
hMCR-1; read-out: MC-1 EC50 (average; cAMP HBL)
  EC50: 0.17 nM

## CCCC[C@H](NC(C)=O)C(=O)N[C@H](Cc1ccccc1)C(=O)N[C@@H](CCCNC(=N)N)C(=O)N[C@@H](C)C(=O)N[C@@H](Cc1c[nH]c2ccccc12)C(N)=O [Example 9.15, Ac-Nle-D-Phe-Arg-Ala-Trp-NH2] (Ac-[Nle][dF]RAW-NH2)
hMCR-4
  Ki: 7120 nM
hMCR-1a
  Ki: 1290 nM
hMCR-1
  Emax: 67%

## CCCC[C@H](NC(C)=O)C(=O)N[C@@H](C)C(=O)N[C@@H](CCCN)C(=O)N[C@H](Cc1ccccc1)C(=O)N[C@@H](CCCNC(=N)N)C(=O)N[C@@H](C)C(=O)N[C@@H](Cc1c[nH]c2ccccc12)C(N)=O [Example 9.21, Ac-Nle-Ala-Orn-D-Phe-Arg-Ala-Trp-NH2] (Ac-[Nle]A[Orn][dF]RAW-NH2)
hMCR-4
  Ki: 7580 nM
hMCR-1a
  Ki: 0.3 nM
hMCR-1
  Emax: 107%

## CCCC[C@H](NC(C)=O)C(=O)N[C@@H](C)C(=O)N[C@@H](CCN)C(=O)N[C@H](Cc1ccccc1)C(=O)N[C@@H](CCCNC(=N)N)C(=O)N[C@@H](C)C(=O)N[C@@H](Cc1c[nH]c2ccccc12)C(N)=O [Example 9.22, Ac-Nle-Ala-Dab-D-Phe-Arg-Ala-Trp-NH2] (Ac-[Nle]A[Dab][dF]RAW-NH2)
hMCR-4
  Ki: 7850 nM
hMCR-1a
  Ki: 2 nM
hMCR-1
  Emax: 101%
